# Measured values from PMC10828444, “Selective inhibition of overactive warmth-sensitive Ca^2+-permeable TRPV3 channels by antispasmodic agent flopropione for alleviation of skin inflammation” (The Journal of Biological Chemistry, 2023).
# Like-named read-outs stand apart in the source and are kept apart here.
# Tests used:
# hTRPV3 single channel = molecular target: T1, hTRPV3 single channel (Homo sapiens, UniProt Q8NET8); assay: Inside-out single-channel recordings of TRPV3 in HEK293 cells; format: cell-based; settings: agonist 2-APB 30 μmol/L alone, −60 mV
# T1 construct: expressed in transfected cells; host or cells: HEK293
# T1 sequence (Q8NET8 1-790): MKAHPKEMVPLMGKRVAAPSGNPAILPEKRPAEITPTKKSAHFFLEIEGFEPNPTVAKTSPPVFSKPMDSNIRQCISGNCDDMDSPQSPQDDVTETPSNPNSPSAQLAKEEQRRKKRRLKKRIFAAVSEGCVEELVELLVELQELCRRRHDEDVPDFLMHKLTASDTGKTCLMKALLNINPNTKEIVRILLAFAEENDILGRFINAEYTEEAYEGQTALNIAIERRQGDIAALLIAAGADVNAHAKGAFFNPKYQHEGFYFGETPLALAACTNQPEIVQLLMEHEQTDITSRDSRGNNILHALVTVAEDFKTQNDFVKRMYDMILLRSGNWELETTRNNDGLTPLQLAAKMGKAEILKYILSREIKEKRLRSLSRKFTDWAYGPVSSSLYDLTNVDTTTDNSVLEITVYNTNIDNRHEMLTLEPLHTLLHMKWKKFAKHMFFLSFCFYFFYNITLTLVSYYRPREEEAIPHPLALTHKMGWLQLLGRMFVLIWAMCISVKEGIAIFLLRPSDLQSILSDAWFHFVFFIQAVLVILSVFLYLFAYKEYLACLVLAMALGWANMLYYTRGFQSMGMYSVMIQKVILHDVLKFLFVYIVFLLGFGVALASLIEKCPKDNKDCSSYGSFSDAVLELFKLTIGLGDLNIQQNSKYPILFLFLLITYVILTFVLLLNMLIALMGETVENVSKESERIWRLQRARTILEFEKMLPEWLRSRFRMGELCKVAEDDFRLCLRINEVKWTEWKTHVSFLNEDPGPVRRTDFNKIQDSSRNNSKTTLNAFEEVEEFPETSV
# Excerpt: For single-channel recordings, borosilicate glass pipettes were pulled from borosilicate glass capillaries and fire-polished to the resistance between 6 and 10 MΩ using a DMZ universal electrode puller (Zeitz-Instruments, GmbH). For inside-out single-channel recordings, both pipette and external solutions contained (in mM): 130 NaCl, three HEPES, and 0.2 EDTA (pH = 7.4). Membrane potential was clamped at −60 mV and currents were digitized at 10 kHz and filtered at 2 kHz.
# TRPV2 = system: TRPV2; parameters: method as in PMID 33876725; settings: ref [18]; read-out: IC50 TRPV2 currents; cited from earlier work
# TRPM8 = system: TRPM8; parameters: method as in PMID 33876725; settings: ref [18]; read-out: IC50 TRPM8 currents; cited from earlier work
# TRPV3 = settings: cited from earlier work
# TRPV1 = system: TRPV1; parameters: method as in PMID 30108138, PMID 27160770; settings: ref [16], [42]; cited from earlier work
# TRPV4 = system: TRPV4; parameters: method as in PMID 30108138, PMID 27160770; settings: ref [16], [42]; cited from earlier work
# TRPA1 = system: TRPA1; parameters: method as in PMID 30377214; settings: ref [17]; cited from earlier work
molecule,measurement,setting,value
"NCCOB(c1ccccc1)c1ccccc1 [2-APB, 2-aminoethoxydiphenyl borate]",single-channel conductance,hTRPV3 single channel,about 170.9 ± 4.8 pS
same,single-channel open probability,hTRPV3 single channel,0.75
CCCCOc1ccc(C(=O)CCN2CCCCC2)cc1 [dyclonine],IC50,TRPV2,31 µM
same,IC50,TRPM8,82 µM
same,IC50,"TRPV3; ref [18], read-out: IC50 TRPV3 currents",~3.2 µM
COc1ccc2ccc(=O)oc2c1CC=C(C)C [osthole],inhibition of TRPV1,TRPV1,weak inhibition
same,inhibition of TRPV4,TRPV4,weak inhibition
same,IC50,"TRPV3; ref [16], [42], read-out: IC50 TRPV3",~37 µM
forsythoside B,IC50,"TRPV3; ref [17], read-out: IC50 TRPV3 currents",~6.7 µM
same,inhibition of TRPA1 currents,TRPA1,weak inhibition
